Literature values as cited in patent publication US20230364199A1, “IMPROVEMENT OF PHYSICAL AND MENTAL WELL-BEING OF PATIENTS WITH HYPOPARATHYROIDISM” (ASCENDIS PHARMA BONE DISEASES A/S, priority 2020, published 2023).

B1: PTH 1-84: PTH polypeptide of SEQ ID NO: 1 (PTH 1-84) (protein, listed as Homo sapiens)
chain: SVSEIQLMHNLGKHLNSMERVEWLRKKLQDVHNFVALGAPLAPRDAGSQRPRKKEDNVLVESHEKSLGEADKADVNVLTKAKSQ

Legend:
[1] = test system: patients with hypoparathyroidism
[2] = test system: patients with hypoparathyroidism; details: 54 patients, after 1 year of treatment, every other day
[3] = test system: adults with chronic hypoparathyroidism; details: supplements adjusted to target serum calcium

Molecule | 9-min walk-run test ([1]; seven patients, before and after 3 years of treatment, twice a day) | fatigue and physical endurance described by patients ([1]; several patients, during PTH treatment) | QoL, mental component score and physical component score (RAND 36-Item Health Survey) [2] | QoL (SF-36), between-group differences versus placebo [3]
PTH 1-34: PTH polypeptide of SEQ ID NO: 51 (PTH 1-34) (SVSEIQLMHNLGKHLNSMERVEWLRKKLQDVHNF; human PTH 1-34) | no significant changes | less fatigue and greater physical endurance |  | 
B1 |  |  | improvement in QoL | not statistically significant
